According to patent US11401555B2, “Genetic polymorphisms associated with stroke, methods of detection and uses thereof” (CELERA CORPORATION, priority 2008, dated 2022):

Test: Stroke statin response (SSR) in the PROSPER pravastatin trial: pravastatin-treated versus placebo-treated, by SNP genotype
Assay type: in vivo, human
Details: for HR_RESP_unadj (hazard ratio, pravastatin-treated versus placebo-treated): endpoint stroke; for EVENTS_RESP (number of stroke events): pravastatin arm
Text: (hCV26505812) for association with SSR in CARE (Table 37) and PROSPER (Table 38), including both unadjusted and adjusted analyses (adjusted for factors such as age, gender, smoking status, hypertension, diabetes, BMI, and LDL and HDL levels). Table 37 provides results in CARE, and Table 38 provides results in PROSPER (whether each analysis is unadjusted or adjusted is indicated in the “adjust” column in Table 37, or by “unadj” and “adj” column labels in Tables 38). With respect to Tables 22-32 and 37-38, the columns labeled “Genotype” (in Tables 22-28 and 37), “Geno_Placebo” (in Tables 29-30 and 38), and “Geno_Resp” (in Tables 31-32 and 38) indicate the genotype which the given stroke risk or SSR results correspond to. […] In Tables 29-32 and 38, the columns labeled “LOWER_PLACEBO” and “UPPER_PLACEBO” (Tables 29-30 and 38), and “LOWER_RESP” and “UPPER_RESP” (Tables 31-32 and 38), refer to the lower and upper 95% confidence intervals for the hazard ratios. See Example Six below for further information relating to Tables 22-32 and 37-38. […] As used herein, the term “benefit” (with respect to a preventive or therapeutic drug treatment) is defined as achieving a reduced risk for a disease that the drug is intended to treat or prevent (e.g., stroke) by administrating the drug treatment, compared with the risk for the disease in the absence of receiving the drug treatment (or receiving a placebo in lieu of the drug treatment) for the same genotype. The term “benefit” may be used herein interchangeably with terms such as “respond positively” or “positively respond”. For stroke risk and statin response associations based on samples from the CARE and PROSPER trials described herein, stroke risk is assessed by comparing the risk of stroke for a given genotype with the risk of stroke for a reference genotype either in the placebo arm of the trial or in the whole study population of the trial, and statin response is assessed by comparing the risk of stroke in the pravastatin arm of the trial with the risk of stroke in the placebo arm of the trial for the same genotype. […] Example Five above describes the analysis of these 61 SNPs plus 17 additional SNPs in the German West Study. […] In PROSPER, SNPs were analyzed for association with stroke risk or SSR, in the whole study cohort (strata: “ALL”), or in the subgroup with a history of CVD (strata: “hist”) or without a CVD history (strata: “no hist”). […] Also in the CARE and PROSPER trials, the chromosome 9p21 SNP […] (hCV26505812) was analyzed further for association with SSR, including unadjusted and adjusted analysis. Adjusted analysis in CARE (Table 37) was adjusted for age, gender, smoking status, hypertension, diabetes, body mass index (BMI), and LDL and HDL levels, and adjusted analysis in PROSPER (Table 38) was adjusted for country, gender, age, LDL, HDL, smoking status (current vs. past or never), history of hypertension, and diabetes. Table 37 provides results in CARE, and Table 38 provides results in PROSPER (whether each analysis is unadjusted or adjusted is indicated in the “adjust” column in Table 37, or by “unadj” and “adj” column labels in Tables 38). All the p-values (including Pint values) provided in Tables 37-38 are two-sided p-values.

[1] = hCV1348610 rs3739636 C9orf46, GENO_RESP AA + AG, MODE DOM, STRATA hist
[2] = hCV1348610 rs3739636 C9orf46, GENO_RESP AA, MODE GEN, STRATA hist
[3] = hCV1348610 rs3739636 C9orf46, GENO_RESP AG, MODE GEN, STRATA hist
[4] = hCV1348610 rs3739636 C9orf46, GENO_RESP GG, MODE GEN, STRATA hist
[5] = hCV2091644 rs1010 VAMP8, GENO_RESP CC, MODE GEN, STRATA no hist
[6] = hCV2091644 rs1010 VAMP8, GENO_RESP CT, MODE GEN, STRATA no hist
[7] = hCV2091644 rs1010 VAMP8, GENO_RESP TT, MODE GEN, STRATA no hist

With `CC[C@H](C)C(=O)O[C@H]1C[C@H](O)C=C2C=C[C@H](C)[C@H](CC[C@@H](O)C[C@@H](O)CC(=O)O)[C@H]21` [pravastatin] the “HR_RESP_unadj (hazard ratio, pravastatin-treated versus placebo-treated)” value (PROSPER, rs10757274 genotype AA + AG, mode REC, strata ALL, unadjusted) was 0.919, the “HR_RESP_unadj (hazard ratio, pravastatin-treated versus placebo-treated)” value (PROSPER, rs10757274 genotype AA + AG, mode REC, strata hist, unadjusted) was 0.885 and the “HR_RESP_unadj (hazard ratio, pravastatin-treated versus placebo-treated)” value (PROSPER, rs10757274 genotype AA + AG, mode REC, strata no hist, unadjusted) was 0.927. The “HR_RESP_unadj (hazard ratio, pravastatin-treated versus placebo-treated)” value (PROSPER, rs10757274 genotype AA, mode GEN, strata ALL, unadjusted) was 1.330, the “HR_RESP_unadj (hazard ratio, pravastatin-treated versus placebo-treated)” value (PROSPER, rs10757274 genotype AA, mode GEN, strata hist, unadjusted) was 1.093 and the “HR_RESP_unadj (hazard ratio, pravastatin-treated versus placebo-treated)” value (PROSPER, rs10757274 genotype AA, mode GEN, strata no hist, unadjusted) was 1.570. The “HR_RESP_unadj (hazard ratio, pravastatin-treated versus placebo-treated)” value (PROSPER, rs10757274 genotype AG, mode GEN, strata ALL, unadjusted) was 0.777, the “HR_RESP_unadj (hazard ratio, pravastatin-treated versus placebo-treated)” value (PROSPER, rs10757274 genotype AG, mode GEN, strata hist, unadjusted) was 0.816 and the “HR_RESP_unadj (hazard ratio, pravastatin-treated versus placebo-treated)” value (PROSPER, rs10757274 genotype AG, mode GEN, strata no hist, unadjusted) was 0.698. For the same molecule, the “HR_RESP_unadj (hazard ratio, pravastatin-treated versus placebo-treated)” value (PROSPER, rs10757274 genotype GG + AG, mode DOM, strata ALL, unadjusted) was 0.864, the “HR_RESP_unadj (hazard ratio, pravastatin-treated versus placebo-treated)” value (PROSPER, rs10757274 genotype GG + AG, mode DOM, strata hist, unadjusted) was 0.892 and the “HR_RESP_unadj (hazard ratio, pravastatin-treated versus placebo-treated)” value (PROSPER, rs10757274 genotype GG + AG, mode DOM, strata no hist, unadjusted) was 0.813. For the same molecule, the “HR_RESP_unadj (hazard ratio, pravastatin-treated versus placebo-treated)” value (PROSPER, rs10757274 genotype GG, mode GEN, strata ALL, unadjusted) was 1.082, the “HR_RESP_unadj (hazard ratio, pravastatin-treated versus placebo-treated)” value (PROSPER, rs10757274 genotype GG, mode GEN, strata hist, unadjusted) was 1.098 and the “HR_RESP_unadj (hazard ratio, pravastatin-treated versus placebo-treated)” value (PROSPER, rs10757274 genotype GG, mode GEN, strata no hist, unadjusted) was 1.068. The “HR (hazard ratio) for stroke events, pravastatin-treated versus placebo-treated” value (PROSPER, heterozygous carriers of SNP rs10757274 (chromosome 9p21), unadjusted) was 0.777, the “EVENTS_RESP (number of stroke events)” value (PROSPER, genotype AA + AG, mode REC, strata ALL) was 150 and the “EVENTS_RESP (number of stroke events)” value (PROSPER, genotype AA + AG, mode REC, strata hist) was 87. The “EVENTS_RESP (number of stroke events)” value (PROSPER, genotype AA + AG, mode REC, strata no hist) was 63, the “EVENTS_RESP (number of stroke events)” value (PROSPER, genotype AA, mode GEN, strata ALL) was 56 and the “EVENTS_RESP (number of stroke events)” value (PROSPER, genotype AA, mode GEN, strata hist) was 28. For the same molecule, the “EVENTS_RESP (number of stroke events)” value (PROSPER, genotype AA, mode GEN, strata no hist) was 28, the “EVENTS_RESP (number of stroke events)” value (PROSPER, genotype AG, mode GEN, strata ALL) was 94 and the “EVENTS_RESP (number of stroke events)” value (PROSPER, genotype AG, mode GEN, strata hist) was 59. For the same molecule, the “EVENTS_RESP (number of stroke events)” value (PROSPER, genotype AG, mode GEN, strata no hist) was 35, the “EVENTS_RESP (number of stroke events)” value (PROSPER, genotype GG + AG, mode DOM, strata ALL) was 145 and the “EVENTS_RESP (number of stroke events)” value (PROSPER, genotype GG + AG, mode DOM, strata hist) was 86. The “EVENTS_RESP (number of stroke events)” value (PROSPER, genotype GG + AG, mode DOM, strata no hist) was 59, the “EVENTS_RESP (number of stroke events)” value (PROSPER, genotype GG, mode GEN, strata ALL) was 51 and the “EVENTS_RESP (number of stroke events)” value (PROSPER, genotype GG, mode GEN, strata hist) was 27. The “EVENTS_RESP (number of stroke events)” value (PROSPER, genotype GG, mode GEN, strata no hist) was 24, the EVENTS_RESP [1] was 71 and the “HR_RESP (hazard ratio, pravastatin-treated versus placebo-treated)” value [1] was 0.8064. For the same molecule, the EVENTS_RESP [2] was 24, the “HR_RESP (hazard ratio, pravastatin-treated versus placebo-treated)” value [2] was 0.9861 and the EVENTS_RESP [3] was 47. For the same molecule, the “HR_RESP (hazard ratio, pravastatin-treated versus placebo-treated)” value [3] was 0.7406, the EVENTS_RESP [4] was 43 and the “HR_RESP (hazard ratio, pravastatin-treated versus placebo-treated)” value [4] was 1.277. For the same molecule, the EVENTS_RESP (hCV2091644 rs1010 VAMP8, GENO_RESP CC + CT, MODE DOM, STRATA no hist) was 50, the EVENTS_RESP [5] was 13 and the “HR_RESP (hazard ratio, pravastatin-treated versus placebo-treated)” value [5] was 0.6359. For the same molecule, the EVENTS_RESP [6] was 37, the “HR_RESP (hazard ratio, pravastatin-treated versus placebo-treated)” value [6] was 0.8504 and the EVENTS_RESP [7] was 36. For the same molecule, the “HR_RESP (hazard ratio, pravastatin-treated versus placebo-treated)” value [7] was 1.358, the EVENTS_RESP (hCV2169762 rs1804689 HPS1, GENO_RESP GG + GT, MODE REC, STRATA hist) was 109 and the EVENTS_RESP (hCV2169762 rs1804689 HPS1, GENO_RESP GG, MODE GEN, STRATA hist) was 62.
